Test results published in patent US7691874B2, “Neuroprotective properties of dextrorotatory morphinans” (priority 2004, dated 2010).

Columns and labels:
[1] = test system: MA-treated mice; assay: MA-induced behavioural sensitization
Procedure: Morphinans (20 mg/kg, i.p.) were administered last 3 days of wash-out period.

[2] = test system: LPS-treated mice; assay: LPS-induced loss of nigral TH-IR with CB1 agonist/antagonist and HM; assay type: in vivo
Procedure: Mortality was observed by 2 weeks after bilateral LPS intrastriatal injection (one side: 2 μg×2).

[3] = test system: MPTP-treated mice; assay: MPTP-induced loss of nigral TH-IR with CB1 agonist/antagonist and HM; assay type: in vivo; settings: combined with HM 20 mg/kg i.p.
Procedure: CB1 agonist or antagonist was administered 45 min before every MPTP, while HM was injected 30 min before every MPTP (20 mg/kg, i.p./day×7). Compounds were administered for 7 days post-final MPTP.

[4] = test system: cocaine-treated mice; assay: Cocaine-induced behavioural sensitization with CB1 modulation
[5] = test system: MA-treated mice; assay: MA-induced conditioned place preference with CB1 modulation
Procedure: (§1) The control mice received an i.p. injection of saline just before entering the white or black compartment. Cocaine or MA dissolved in saline was administered immediately before the mice were placed in the white compartment. To test the effect of cocaine alone or MA alone or in combination with exemplified morphinans (DM, HM, AM, CM or DF), each morphinan was administered 2 hr before cocaine or saline injection.
(§2) On day 1, the mice were pre-exposed to the test apparatus for 5 min. The guillotine doors were raised and the mice were allowed to move freely between the two compartments. On day 2, the time each mouse spent in each compartment was recorded for 15 min. On days 3, 5, 7, 9, 11, and 13, the mice were injected with cocaine before being confined to the white compartment, the non-preferred side, for 20 min. On days 4, 6, 8, 10, and 12, the mice were injected with saline before being confined to the black compartment, the preferred side, for 20 min. On day 14, the guillotine doors were raised. The mice were initially placed in the tunnel and the time spent by the mice in the two compartments was recorded for 15 min. The scores were calculated from the differences in the time spent in the white compartment in the testing and pre-testing phases.

[6] = test system: MA-treated mice; assay: MA-induced loss of nigral TH-IR with CB1 agonist/antagonist and HM
Procedure: Compounds were administered 3 days before and after MA injection.

[7] = test system: LPS-treated mice; assay: LPS-induced mortality with CB1 agonist/antagonist and HM; assay type: in vivo
[8] = test system: cocaine-treated mice; assay: Cocaine-induced conditioned place preference with CB1 modulation
Procedure: as §1, §2

[9] = test system: MA-treated mice; assay: MA model, HM versus L-dopa/carbidopa: hyperthermia; assay type: in vivo; settings: MA 7.5 mg/kg i.p. x 4
Procedure: FIGS. 31A-31B show effect of drugs on the MA-induced hyperthermia. Mice received MA injections as 2 hrs' time interval under the ambient temperature of 22.0±0.5° C.
Experimental paradigm for MA with or without compounds is in FIG. 30. Treatment with MA (7.5 mg/kg, i.p.×four times as two hour time interval) produces hyperthermia (P<0.01).

[10] = test system: LPS-treated mice; assay: LPS model, HM versus L-dopa/carbidopa: mortality; assay type: in vivo; settings: intrastriatal LPS 2 μg x 4/head; 2 weeks
Procedure: Mortality was observed by 2 weeks after LPS injection. *P<0.01 vs. Saline+LPS (x^2-test).
The neuroprotective effect of HM was compared with L-dopa, carbidopa, or carbidopa plus L-dopa in response to dopaminergic damage induced by LPS. Intrastriatal injection of LPS (2 μg×4/head) produced high mortality (ten animals died out of twelve animals in the 2 weeks after LPS administration).

[11] = test system: LPS-treated mice; assay: LPS model, HM versus L-dopa/carbidopa: nigral TH-IR; settings: mouse, in vivo
Text: FIG. 27 show effects of carbidopa, L-dopa, carbidopa+L-dopa and HM on the nigral tyrosine hydroxylase-like immunoreactivity (TH-IR) of the mice treated with LPS.

[12] = test system: MA-treated mice; assay: MA model, HM versus L-dopa/carbidopa: locomotor activity; assay type: in vivo; settings: 3 days after MA
[13] = test system: LPS-treated mice; assay: LPS model, HM versus L-dopa/carbidopa: locomotor activity; assay type: in vivo; settings: 3 weeks after LPS
Procedure: Locomotor activity was examined for 60 min at 3 weeks after LPS treatment. LPS-induced significant reduction (P<0.01 vs. saline treatment) in locomotor activity was attenuated by L-dopa (P<0.05), carbidopa+L-dopa (P<0.05) or HM (P<0.01) (FIGS. 24 and 25).

[14] = test system: LPS-treated mice; assay: LPS model, HM versus L-dopa/carbidopa: microglia F4/80-like immunoreactivity; assay type: in vivo; settings: substantia nigra
[15] = test system: MPTP-treated mice; assay: MPTP model, HM versus L-dopa/carbidopa: locomotor activity; assay type: in vivo; settings: HM 24 mg/kg i.p., L-dopa 200 mg/kg p.o., carbidopa 20 mg/kg p.o., 2 weeks before MPTP
Procedure: FIGS. 20A-20B show effects of carbidopa, L-dopa, carbidopa+L-dopa and HM on the changes in locomotor activity (A) and locomotor pattern (B) induced by MPTP in mice.
A prescription drug for treating Parkinsonian patients is L-dopa or carbidopa plus L-dopa. Thus, the neuroprotective effects of HM was compared with L-dopa, carbidopa, or carbidopa plus L-dopa. […] Locomotor activity was examined for 60 min after final treatment of MPTP. Mice were sacrificed at 24 h after final MPTP administration. HM (24 mg/kg, i.p.), L-dopa (200 mg/kg, p.o.) with or without carbidopa (20 mg/kg, p.o.) was administered for 2 weeks before first MPTP challenge.

**Q.** For CCCCC/C=C\C/C=C\C/C=C\C/C=C\CCCC(=O)NCCCl [ACEA, arachidonyl-2-chloroethylamide], which “behavioural effects of the compound itself” value ([1]; AM 251 0.3, ACEA 2, HM 20 mg/kg, no MA (Ex. 3.14)) is on record?
**A.** Neither saline-, AM 251 (0.3 mg/kg)-, ACEA (2 mg/kg)-treated nor HM (20 mg/kg)-treated animals showed any behavioural effects

**Q.** And the “effect on MA-induced behavioural sensitization (CB1 modulation study)” value ([1]; MA 1 mg/kg i.p./day x 7, challenge one week later (Ex. 3.14))?
**A.** Neither ACEA nor AM 251 influenced behavioural sensitization by cocaine

**Q.** What about the “effect on HM's effect on MA-induced sensitization” value ([1]; combined with HM) of the same compound?
**A.** significantly reversed HM's effect

**Q.** What about the “effect on LPS-induced loss in TH-IR when combined with HM / on HM's effect” value ([2]; combined with HM) of the same compound?
**A.** counteracted HM's protective effect

**Q.** And the “effect on LPS-induced reduction in nigral TH-IR” value ([2]; given alone)?
**A.** did not alter LPS-induced reduction in TH-IR

**Q.** And the “effect on MPTP-induced loss in TH-IR when combined with HM / on HM's action” value [3]?
**A.** counteracted HM's neuroprotective action

**Q.** What about the “behavioural effects of the compound itself” value ([4]; AM 251 0.3, ACEA 2, HM 20 mg/kg, no cocaine) of the same compound?
**A.** Neither saline-, AM 251 (0.3 mg/kg)-, ACEA (2 mg/kg)-treated nor HM (20 mg/kg)-treated animals showed any specific behavioural effects

**Q.** And the “effect on cocaine-induced behavioural sensitization” value ([4]; cocaine 10 mg/kg/day i.p. x 7, challenge one month later)?
**A.** Neither ACEA nor AM 251 alter behavioural sensitization by cocaine

**Q.** What about the “effect on HM's effect in response to cocaine-induced sensitization” value ([4]; combined with HM) of the same compound?
**A.** Neither ACEA nor AM 251 significantly alter HM's effect

**Q.** And the “CPP response of the compound itself” value ([5]; AM 251 0.3, HM 20, ACEA 2 mg/kg i.p., no MA)?
**A.** showed CPP effects

**Q.** What about the “effect on HM's effect in response to MA-induced CPP” value ([5]; combined with HM) of the same compound?
**A.** significantly counteracted

**Q.** What about the “effect on MA-induced CPP” value ([5]; mouse, in vivo) of the same compound?
**A.** did not alter CPP effects by MA

**Q.** And the “effect on MA-induced reduction in TH-IR when combined with HM / on HM's effect” value ([6]; combined with HM 20 mg/kg)?
**A.** reversed HM's protective effect

**Q.** And the “effect on MA-induced reduction in nigral TH-IR” value ([6]; given alone)?
**A.** did not alter MA-induced reduction in TH-IR

**Q.** What about the “effect on HM-induced protective (anti-mortal) effect” value ([7]; combined with HM 20 mg/kg) of the same compound?
**A.** reversed HM-induced protective (anti-mortal) effect

**Q.** What about the “effect on LPS-induced mortality” value ([7]; given alone: HM 20, ACEA 2, AM-251 0.3 mg/kg, 2 weeks after bilateral intrastriatal LPS) of the same compound?
**A.** Neither AM-251 nor ACEA significantly changed LPS-induced mortality

**Q.** And the “CPP response of the compound itself” value ([8]; AM 251 0.3, HM 20, ACEA 2 mg/kg, no cocaine)?
**A.** showed CPP effects

**Q.** What about the “effect on cocaine-induced CPP” value ([8]; cocaine 10 mg/kg) of the same compound?
**A.** did not alter CPP effects by cocaine

**Q.** What about the “effect on HM's effect in response to cocaine-induced CPP” value ([8]; combined with HM 20 mg/kg) of the same compound?
**A.** appears to counteract the cocaine-induced CPP

**Q.** With N[C@@H](Cc1ccc(O)c(O)c1)C(=O)O [L-dopa] as the compound, how does the “effect on MA-induced hyperthermia” value [9] read?
**A.** significantly attenenuated

**Q.** And the “effect on mortality induced by LPS” value [10]?
**A.** appears to attenuate mortality induced by LPS

**Q.** And the “effect on LPS-induced loss in nigral TH-IR” value [11]?
**A.** significantly attenuated

**Q.** What about the “effect on MA-induced reduction in locomotor activity” value [12] of the same compound?
**A.** significantly enhanced

**Q.** And the “effect on LPS-induced reduction in locomotor activity” value [13]?
**A.** attenuated

**Q.** What about the “effect on LPS-induced increase in F4/80-like immunoreactivity (microglia)” value [14] of the same compound?
**A.** significantly attenuated

**Q.** And the “effect on MPTP-induced decrease in locomotor activity” value [15]?
**A.** appeared to increase

**Q.** How did the “effect on MA-induced hyperthermia” value [9] turn out when C[C@@](Cc1ccc(O)c(O)c1)(NN)C(=O)O [carbidopa] was run?
**A.** significantly attenenuated

**Q.** What about the “effect on mortality induced by LPS” value [10] of the same compound?
**A.** appears to attenuate mortality induced by LPS

**Q.** And the “effect on LPS-induced loss in nigral TH-IR” value [11]?
**A.** significantly attenuated

**Q.** What about the “effect on LPS-induced increase in F4/80-like immunoreactivity (microglia)” value [14] of the same compound?
**A.** significantly attenuated

**Q.** What about the “effect on MPTP-induced decrease in locomotor activity” value [15] of the same compound?
**A.** appeared to increase
